Consider four compounds from patent publication US6362179B1, “Salts of an optically-active sulfoxide derivative” (Sankyo Company, Limited, priority 1997, dated 2002).

Assay [1] deals with T1, NK2 receptor (Cavia porcellus, UniProt Q64077).
T1 construct: bronchoconstriction induced with [Nle^10]-NKA[4-10], an NK2 receptor agonist; from tissue; host or cells: living male Hartley guinea pig; airway pressure (Konzett-Roessler)
T1 sequence (Q64077 1-402): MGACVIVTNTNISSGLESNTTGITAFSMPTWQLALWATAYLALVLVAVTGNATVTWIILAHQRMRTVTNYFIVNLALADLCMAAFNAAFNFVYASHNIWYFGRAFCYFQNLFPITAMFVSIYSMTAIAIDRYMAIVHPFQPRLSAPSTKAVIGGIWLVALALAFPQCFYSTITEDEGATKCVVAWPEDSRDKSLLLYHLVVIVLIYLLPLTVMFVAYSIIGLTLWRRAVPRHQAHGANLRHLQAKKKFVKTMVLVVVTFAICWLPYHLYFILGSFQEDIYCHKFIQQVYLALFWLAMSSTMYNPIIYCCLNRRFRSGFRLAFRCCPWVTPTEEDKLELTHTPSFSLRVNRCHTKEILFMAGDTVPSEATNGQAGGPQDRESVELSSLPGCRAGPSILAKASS
The assay can be described thus: Inhibitory effect against bronchoconstriction induced with [Nle10]-NKA[4-10]. The following applies: for ID50 (mg/kg, p.o.): male Hartley guinea pigs, oral administration one hour before [Nle10]-NKA[4-10] (4 μg/kg i.v.), AUC of airway pressure. Type of assay: in vivo, guinea pig.

Assay [2] has as its target T2, NK1 receptor (Cavia porcellus, UniProt P30547).
T2 construct: increased vascular permeability induced by substance P (SP), an NK1 receptor agonist; from tissue; host or cells: living male Hartley guinea pig; pigment leakage at the primary bronchus
Description: Inhibitory effect against increased vascular permeability induced by substance P. Type of assay: in vivo, guinea pig. The following applies: male Hartley guinea pigs; for ID50 (mg/kg, p.o.): oral administration 1 hour before SP (1 μg/kg i.v.), Evans blue leakage into primary bronchus; for Inhibitory rate (%) on oral administration at 3.3 mg/kg: 3.3 mg/kg p.o. 1 hour before SP, pigment leakage. As for the experimental part:
Inhibitory Effect Against Increased Vascular Permeability
The inhibitory effect on increased vascular permeability induced by substance P (SP), an NK1 receptor agonist, was assessed based on the amount of pigment leakage as an index using guinea pigs (body weight: approx. 400 g, male Hartley guinea pigs).
A pigment (Evans blue: 40 mg/kg) was administered to the femoral vein of a guinea pig anesthetized with pentobarbital (30 mg/kg, i.p.) and immediately after that, SP (1 μg/kg) was intravenously injected to induce accentuation of vascular permeability. Fifteen minutes after the injection, the guinea pig was sacrificed under anesthesia with chloroform and the amount of the pigment leaked into the primary bronchus site was measured in accordance with Harada's method (J. Pharm. Pharmacol. 23, 218(1971)). A test substance was suspended in a 0.5% tragacanth suspension and orally administered to a guinea pig 1 hour before induction by SP. Its inhibitory action was determined by the ratio of the pigment leaked from the test-substance-administered group to that from the non-administered group. In Table 1, 50% inhibitory dose (ID50) and inhibitory rate in the case of oral administration at 3.3 mg/kg are shown.

Assay [3] has as its target NK1 receptors (Homo sapiens, UniProt P25103). Description: Pharmacological test of antagonistic activity against NK1 receptors in vitro. The settings on record: test made by the present inventors.

T2 sequence (P30547 whole entry): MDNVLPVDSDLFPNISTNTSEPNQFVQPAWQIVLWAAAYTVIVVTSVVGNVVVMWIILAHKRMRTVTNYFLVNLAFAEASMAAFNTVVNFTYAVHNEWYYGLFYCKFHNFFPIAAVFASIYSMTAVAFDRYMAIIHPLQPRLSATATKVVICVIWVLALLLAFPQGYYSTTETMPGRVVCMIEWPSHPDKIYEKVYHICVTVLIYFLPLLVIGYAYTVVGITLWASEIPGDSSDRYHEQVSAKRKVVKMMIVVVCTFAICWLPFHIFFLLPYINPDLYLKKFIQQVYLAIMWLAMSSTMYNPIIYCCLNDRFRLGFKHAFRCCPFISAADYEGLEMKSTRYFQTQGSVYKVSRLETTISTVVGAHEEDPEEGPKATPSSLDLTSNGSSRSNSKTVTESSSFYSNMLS
Sequence of NK1 receptors (P25103 whole entry): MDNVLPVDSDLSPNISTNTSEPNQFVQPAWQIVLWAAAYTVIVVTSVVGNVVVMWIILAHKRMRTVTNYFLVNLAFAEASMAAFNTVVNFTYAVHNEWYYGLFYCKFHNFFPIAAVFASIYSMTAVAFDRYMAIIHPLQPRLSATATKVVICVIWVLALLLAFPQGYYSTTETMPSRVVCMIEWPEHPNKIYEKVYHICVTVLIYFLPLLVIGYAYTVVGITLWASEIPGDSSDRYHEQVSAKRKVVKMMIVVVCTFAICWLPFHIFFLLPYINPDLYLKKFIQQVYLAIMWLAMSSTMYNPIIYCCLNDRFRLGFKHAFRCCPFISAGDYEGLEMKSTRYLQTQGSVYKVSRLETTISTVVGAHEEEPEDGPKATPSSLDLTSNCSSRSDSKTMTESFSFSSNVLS

As for `Cc1cc(C)cc(C(=O)N(C)C[C@@H](CCN2CCC3(CC2)CN(S(C)(=O)=O)c2ccccc23)c2ccc(Cl)c(Cl)c2)c1` [Compound A, reference compound], the ED50 in assay [1] (guinea pig, guinea pigs, intravenous injection of test substance, read-out: ID50 (the source's name)) was greater than 10 mg/kg. Moreover, the “ID50 (mg/kg, p.o.)” value in assay [2] is listed as “greater than 10 mg/kg”.
For `COc1cc(C(=O)N2CCO[C@](CCN3CCC4(CC3)c3ccccc3C[S@@+]4[O-])(c3ccc(Cl)c(Cl)c3)C2)cc(OC)c1OC.Cl` [Compound of Ex. 1, 1-{2-[(2R)-(3,4-Dichlorophenyl)-4-(3,4,5-trimethoxybenzoyl)morpholin-2-yl]ethyl}spiro[benzo(c)thiophene-1(3H),4′-piperidin]-(2S)-oxide hydrochloride], the results for the “ID50 (mg/kg, p.o.)” value in assay [1] and in assay [2] were 0.51 mg/kg and 5.1 mg/kg, respectively. The “Inhibitory rate (%) on oral administration at 3.3 mg/kg” value in assay [2] is given as 48.0%.
On to `CN(C[C@@H](CCN1CCC2(CCc3ccccc32)CC1)c1ccc(Cl)c(Cl)c1)C(=O)c1ccccc1` [B], for which, in assay [3], the “antagonistic activity against NK1 receptors in vitro” value is given as “markedly weak”.
On to `COc1cc(C(=O)N2CCOC(CCN3CCC4(CC3)c3ccccc3C[S+]4[O-])(c3ccc(Cl)c(Cl)c3)C2)cc(OC)c1OC.O=C(O)/C=C/C(=O)O` [Compound of Ex. 2, 1-{2-[(2R)-(3,4-Dichlorophenyl)-4-(3,4,5-trimethoxybenzoyl)morpholin-2-yl]ethyl}spiro[benzo(c)thiophene-1(3H),4′-piperidin]-(2S)-oxide fumarate], for which the “ID50 (mg/kg, p.o.)” value in assay [1] is listed as 0.54 mg/kg. In addition, the “Inhibitory rate (%) on oral administration at 3.3 mg/kg” value in assay [2] was 46.8%.
